Laboratory results taken from patent publication US20160303095A1, “METHODS OF TREATING HEPATITIS B VIRUS” (Gilead Sciences, Inc., priority 2015, published 2016).

How the values were obtained:
KDM2A = biological target: T1, KDM2A (Homo sapiens, UniProt Q9Y2K7); assay: Biochemical KDM inhibition assay (LANCE), KDM2A; conditions: read-out: Biochemical IC50 KDM 2A
T1 construct: host or cells: Sf9 cells
T1 sequence (Q9Y2K7 1-1162): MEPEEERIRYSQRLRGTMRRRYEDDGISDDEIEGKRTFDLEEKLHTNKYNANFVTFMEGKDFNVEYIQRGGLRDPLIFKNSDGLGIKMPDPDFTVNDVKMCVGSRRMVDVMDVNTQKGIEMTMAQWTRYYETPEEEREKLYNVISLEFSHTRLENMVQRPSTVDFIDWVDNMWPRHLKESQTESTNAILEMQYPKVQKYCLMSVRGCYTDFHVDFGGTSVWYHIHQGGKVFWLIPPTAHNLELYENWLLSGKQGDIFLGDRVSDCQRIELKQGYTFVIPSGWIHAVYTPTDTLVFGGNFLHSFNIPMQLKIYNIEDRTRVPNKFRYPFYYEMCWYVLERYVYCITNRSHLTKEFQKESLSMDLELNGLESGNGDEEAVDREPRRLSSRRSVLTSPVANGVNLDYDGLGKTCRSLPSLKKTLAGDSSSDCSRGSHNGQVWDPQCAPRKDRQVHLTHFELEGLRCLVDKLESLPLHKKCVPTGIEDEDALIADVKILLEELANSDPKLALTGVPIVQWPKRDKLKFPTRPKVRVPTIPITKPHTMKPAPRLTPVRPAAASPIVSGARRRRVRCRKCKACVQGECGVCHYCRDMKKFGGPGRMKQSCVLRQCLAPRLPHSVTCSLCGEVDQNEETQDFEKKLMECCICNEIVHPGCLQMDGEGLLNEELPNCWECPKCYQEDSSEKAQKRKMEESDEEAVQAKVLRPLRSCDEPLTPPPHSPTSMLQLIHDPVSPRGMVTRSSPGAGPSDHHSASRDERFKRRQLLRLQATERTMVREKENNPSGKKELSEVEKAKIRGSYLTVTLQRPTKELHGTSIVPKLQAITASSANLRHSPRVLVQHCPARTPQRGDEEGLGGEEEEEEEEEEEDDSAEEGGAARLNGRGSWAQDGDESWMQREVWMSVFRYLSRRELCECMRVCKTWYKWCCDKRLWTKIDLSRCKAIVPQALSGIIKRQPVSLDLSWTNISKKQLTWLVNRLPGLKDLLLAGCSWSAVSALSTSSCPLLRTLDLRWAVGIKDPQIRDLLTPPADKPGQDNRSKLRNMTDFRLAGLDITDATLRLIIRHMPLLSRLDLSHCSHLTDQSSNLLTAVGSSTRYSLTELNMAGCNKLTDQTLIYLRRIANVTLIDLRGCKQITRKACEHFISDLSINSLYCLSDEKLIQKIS
Procedure: (§1) Representative compounds were characterized for their inhibition of KDM5 using biotinylated histone substrates. Inhibition was measured in vitro (CEREP Poitier, Le Bois l'Evêque, France) following experimental conditions described in Table 2. Briefly, the test compound, reference compound or water (control) was mixed with about 2-20 ng of recombinant, Human enzymes expressed in Sf9 cells in a buffer containing 45 mM Hepes/Tris (pH 7), 5 μM FAS, 100 μM ascorbic acid, 10 μM 2-oxoglutarate, 0.01% Tween 20 and 0.01% BSA. Thereafter, the reaction was initiated by adding the biotin-labeled substrate, and the mixture was incubated for 10-30 min at room temperature. For basal control measurements, the enzyme was omitted from the reaction mixture. Following incubation the reaction was stopped by adding 1 mM EDTA. After 5 min, the anti-methyl histone antibody labeled with europium chelate and the Ulight streptavidine (Perkin Elmer Waltham, Mass.) were added. After 60 min more, the fluorescence transfer was measured at λex=320 nm and λem=620 and λem=665 nm using a microplate reader (Envision, Perkin Elmer) (LANCE). The enzyme activity was determined by dividing the signal measured at λem=665 nm by that measured at 620 nm (ratio).

KDM5C = biological target: T2, KDM5C (Homo sapiens, UniProt P41229); assay: Biochemical KDM inhibition assay (LANCE), KDM5C; conditions: read-out: Biochemical IC50 KDM 5C
T2 construct: host or cells: Sf9 cells
Procedure: as §1

KDM4E = biological target: T3, KDM4E (Homo sapiens, UniProt B2RXH2); assay: Biochemical KDM inhibition assay (LANCE), KDM4E; conditions: read-out: Biochemical IC50 KDM 4E
T3 construct: host or cells: Sf9 cells
T3 sequence (B2RXH2 1-506): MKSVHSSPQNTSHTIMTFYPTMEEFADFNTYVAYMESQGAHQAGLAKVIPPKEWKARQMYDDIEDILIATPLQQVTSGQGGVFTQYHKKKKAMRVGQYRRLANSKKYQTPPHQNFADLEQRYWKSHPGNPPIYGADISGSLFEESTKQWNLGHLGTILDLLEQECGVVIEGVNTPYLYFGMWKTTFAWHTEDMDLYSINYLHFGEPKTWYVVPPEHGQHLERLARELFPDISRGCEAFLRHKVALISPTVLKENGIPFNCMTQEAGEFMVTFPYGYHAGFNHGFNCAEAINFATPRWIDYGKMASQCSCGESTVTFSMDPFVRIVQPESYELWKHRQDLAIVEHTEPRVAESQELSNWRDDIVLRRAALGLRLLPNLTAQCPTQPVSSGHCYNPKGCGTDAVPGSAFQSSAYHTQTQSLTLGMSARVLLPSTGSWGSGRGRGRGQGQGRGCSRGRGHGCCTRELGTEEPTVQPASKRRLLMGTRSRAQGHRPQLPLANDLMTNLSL

[1] = Alamar Blue cell viability assay; assay type: cell-based; conditions: human
Procedure: Alamar Blue cell viability reagent (Cat#DAL1100 Life Technologies, Chicago, Ill.) was diluted 1 to 10 in Maintenance Media and added to the cells. Cells were incubated for 4 h at 37° C. and the fluorescence signal, which is proportional to the number of live cells, was read using a fluorimeter with excitation/emission spectra set at 560/590 nm, respectively. Data were converted into percentages of the untreated control and non-linear regression was performed to calculate CC50 values.
PHH were plated in collagen coated tissue culture plates in Plating Media and after 4-hour incubation at 37° C., cells were switched to Maintenance Media. On the next day, the cells were infected with 500 genome equivalents per cell of Genotype-A clinical isolate 21P (ProteoGenex, Culver City, Calif.) in 100 μl Maintenance Media supplemented with 4% PEG 8000 (Cat#V3011 Promega, Madison, Wis.). After an overnight incubation the inoculum was removed and the cells were washed three times with William's Media E and maintained in Maintenance Media. […] Following the transfection, the cells were incubated at 37° C. in a humidified incubator and media was changed every 3-4 days. The assay was terminated on day 14 post infection and cell viability was assessed by Alamar Blue. The collected medium was used for determination of HBsAg and HBeAg levels by MSD ELISA while cells were processed for determination of HBV RNA using qPCR.

KDM5D = biological target: T4, KDM5D (Homo sapiens, UniProt Q9BY66); assay: Biochemical KDM inhibition assay (LANCE), KDM5D; conditions: read-out: Biochemical IC50 KDM 5D
T4 construct: host or cells: Sf9 cells
Procedure: as §1

T2 sequence (P41229 whole entry): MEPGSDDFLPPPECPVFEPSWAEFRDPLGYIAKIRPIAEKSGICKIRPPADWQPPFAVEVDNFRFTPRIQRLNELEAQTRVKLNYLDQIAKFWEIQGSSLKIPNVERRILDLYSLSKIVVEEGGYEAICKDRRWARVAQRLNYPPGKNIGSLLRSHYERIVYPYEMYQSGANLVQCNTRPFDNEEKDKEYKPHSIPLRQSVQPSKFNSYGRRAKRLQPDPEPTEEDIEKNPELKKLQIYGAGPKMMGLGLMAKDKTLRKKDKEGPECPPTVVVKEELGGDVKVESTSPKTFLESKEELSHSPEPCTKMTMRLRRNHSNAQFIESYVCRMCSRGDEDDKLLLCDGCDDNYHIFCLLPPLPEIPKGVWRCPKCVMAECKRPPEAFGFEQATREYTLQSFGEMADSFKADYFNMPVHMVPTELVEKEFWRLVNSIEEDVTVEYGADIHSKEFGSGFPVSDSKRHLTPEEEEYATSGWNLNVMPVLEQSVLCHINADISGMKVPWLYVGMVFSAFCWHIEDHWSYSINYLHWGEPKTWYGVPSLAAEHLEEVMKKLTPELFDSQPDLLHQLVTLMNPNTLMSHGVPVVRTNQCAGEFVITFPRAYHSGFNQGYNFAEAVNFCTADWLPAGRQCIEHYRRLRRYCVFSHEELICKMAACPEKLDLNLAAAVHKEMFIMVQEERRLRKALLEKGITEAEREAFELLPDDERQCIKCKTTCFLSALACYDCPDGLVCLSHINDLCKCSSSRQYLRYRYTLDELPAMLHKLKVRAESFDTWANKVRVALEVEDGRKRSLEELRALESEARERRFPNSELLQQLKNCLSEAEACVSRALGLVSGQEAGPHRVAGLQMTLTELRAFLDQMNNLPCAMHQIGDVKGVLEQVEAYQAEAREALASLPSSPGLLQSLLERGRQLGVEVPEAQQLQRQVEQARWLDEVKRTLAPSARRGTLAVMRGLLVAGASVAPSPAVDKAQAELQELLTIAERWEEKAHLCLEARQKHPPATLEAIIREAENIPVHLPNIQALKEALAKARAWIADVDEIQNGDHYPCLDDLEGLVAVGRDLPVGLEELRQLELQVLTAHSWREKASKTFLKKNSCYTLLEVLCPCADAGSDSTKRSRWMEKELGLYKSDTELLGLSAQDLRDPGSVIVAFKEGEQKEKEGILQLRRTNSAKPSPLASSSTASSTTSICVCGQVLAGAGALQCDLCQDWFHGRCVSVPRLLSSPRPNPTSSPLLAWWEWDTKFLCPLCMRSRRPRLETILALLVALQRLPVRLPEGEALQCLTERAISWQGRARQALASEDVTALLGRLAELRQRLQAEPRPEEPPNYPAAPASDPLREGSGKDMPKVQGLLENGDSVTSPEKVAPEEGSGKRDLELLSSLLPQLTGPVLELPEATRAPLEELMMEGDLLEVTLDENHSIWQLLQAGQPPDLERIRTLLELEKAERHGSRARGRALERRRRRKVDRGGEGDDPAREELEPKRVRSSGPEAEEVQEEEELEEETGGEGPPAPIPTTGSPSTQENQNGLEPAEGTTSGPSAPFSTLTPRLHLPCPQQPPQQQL
T4 sequence (Q9BY66 whole entry): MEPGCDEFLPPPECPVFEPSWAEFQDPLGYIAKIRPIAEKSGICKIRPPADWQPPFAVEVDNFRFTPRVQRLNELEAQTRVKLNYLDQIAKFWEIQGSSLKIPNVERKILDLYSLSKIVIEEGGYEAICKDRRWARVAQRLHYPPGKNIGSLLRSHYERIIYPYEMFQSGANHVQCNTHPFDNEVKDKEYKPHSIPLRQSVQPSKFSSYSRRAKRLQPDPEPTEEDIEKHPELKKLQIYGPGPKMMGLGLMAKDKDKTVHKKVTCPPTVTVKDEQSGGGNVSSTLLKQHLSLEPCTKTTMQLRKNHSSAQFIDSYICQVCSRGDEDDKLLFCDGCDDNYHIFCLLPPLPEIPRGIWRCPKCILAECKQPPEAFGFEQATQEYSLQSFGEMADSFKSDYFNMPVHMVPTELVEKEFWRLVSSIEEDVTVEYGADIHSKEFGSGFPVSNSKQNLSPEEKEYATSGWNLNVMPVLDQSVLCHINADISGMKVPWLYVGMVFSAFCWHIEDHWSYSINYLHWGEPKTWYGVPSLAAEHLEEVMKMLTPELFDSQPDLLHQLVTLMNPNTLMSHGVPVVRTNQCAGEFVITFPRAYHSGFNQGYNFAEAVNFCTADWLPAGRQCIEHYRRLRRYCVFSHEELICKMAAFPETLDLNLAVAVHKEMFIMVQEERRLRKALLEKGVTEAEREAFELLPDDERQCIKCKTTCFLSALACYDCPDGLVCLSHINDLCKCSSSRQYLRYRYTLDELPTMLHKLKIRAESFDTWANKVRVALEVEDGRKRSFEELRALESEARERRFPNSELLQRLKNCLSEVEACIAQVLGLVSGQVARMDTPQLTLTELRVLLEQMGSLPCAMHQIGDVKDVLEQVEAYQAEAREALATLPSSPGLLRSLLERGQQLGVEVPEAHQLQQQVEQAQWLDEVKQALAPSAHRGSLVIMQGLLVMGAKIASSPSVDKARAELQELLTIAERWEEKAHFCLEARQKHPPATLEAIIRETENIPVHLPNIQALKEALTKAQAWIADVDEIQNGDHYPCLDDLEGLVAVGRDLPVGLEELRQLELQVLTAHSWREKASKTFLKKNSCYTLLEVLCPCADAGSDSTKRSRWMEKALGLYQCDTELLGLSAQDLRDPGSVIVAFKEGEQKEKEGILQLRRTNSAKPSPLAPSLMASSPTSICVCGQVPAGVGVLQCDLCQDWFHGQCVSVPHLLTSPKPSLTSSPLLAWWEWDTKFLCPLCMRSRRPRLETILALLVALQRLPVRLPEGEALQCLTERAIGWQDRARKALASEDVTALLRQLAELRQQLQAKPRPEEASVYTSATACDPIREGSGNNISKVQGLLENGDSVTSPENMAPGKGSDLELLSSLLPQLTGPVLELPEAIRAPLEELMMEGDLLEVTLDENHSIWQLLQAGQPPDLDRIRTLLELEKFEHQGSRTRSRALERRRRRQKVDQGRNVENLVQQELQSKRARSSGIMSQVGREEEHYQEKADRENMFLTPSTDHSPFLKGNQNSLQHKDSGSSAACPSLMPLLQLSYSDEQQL

Row | Compound | IC50 (KDM2A) [nM] | IC50 (KDM5C) [nM] | IC50 (KDM4E) [nM] | CC50 [1] [nM] | IC50 (KDM5D) [nM]
1 | Nc1c(C(=O)O)ccnc1C(=O)O [Example 7, reference compound] | 360 | 540 | 64 | ≥ 100000 | 700
2 | CCOC(=O)c1ccnc(CNCC(=O)N(CC)CCN(C)C)c1 [Example 8] |  |  |  | 28200 | 
3 | CCN(CCN(C)C)C(=O)CNCc1cc(C(=O)O)ccn1 [Example 9] | 650 | 26 | 35 | ≥ 50000 | 66
4 | Cc1cc(Cl)ccc1COc1ccnn1-c1cc(C(=O)O)ccn1 [Example 11] | 450 | 270 | 110 | ≥ 50000 | 98
5 | O=C(O)c1ccncc1Nc1nn(CCN2CCC(F)(F)CC2)c2ccc(F)cc12 [Example 13] | 510 | 86 | 670 | ≥ 50000 | 65
6 | N#CNC(=O)c1ccncc1Nc1nn(CCN2CCC(F)(F)CC2)c2ccc(F)cc12 [Example 14] |  | 240 | 2300 | ≥ 50000 | 85
7 | CCN(CC)CCCCNCc1cc(C(=O)O)ccn1 [Example 18] | 2000 | 21 | 1200 |  | 33
